# From patent publication US9060997B2, “Antifolate compounds for the treatment of melanoma” (UNIVERSIDAD DE MURCIA, priority 2007, dated 2015)
# Key:
# [1] = system: MS, MAT1A, MAT2A, AHYC and DNMT1 mRNA; experiment: Methionine cycle and methylase gene expression in SkMel-28 (real-time PCR); assay type: cell-based, human
# Excerpt: Histograms compare the estimated relative levels of the mRNA with respect to that of β-actin. Values represent the number of copies of mRNA per each 1×10^6 copies of β-actin.
# Primers were designer using Primer Express version 2.0 software (Applied Biosystems, Foster City, Calif.) and synthesized by Invitrogen. The sequence of the primers are as follow: MS (forward: 5′-[…]-[…]-3′; […]; MAT1A (forward: 5′-[…]-[…]; […]; The primers designed to amplify FRα cDNA were: FR1 (forward: 5′-[…]-[…]-3′); […]; cDNA samples (1 μL) were used for real-time PCR in a total volume of 20 μL using SYBR Green Reagent (Applied Biosystems) and specific primers on a 7500 Real Time PCR System of Applied Biosystems. The PCR amplification cycles included denaturation 95° C., 15 min; to activate HotStar Taq DNA polymerase and to minimize primer-dimer contribution), and amplification [over 40-50 cycles including denaturation (94° C.; 30 s), annealing (55° C.; 30 s), and extension (72° C.; 1 min)]. All PCR reactions were performed in triplicate and from at least two independent experiments. Non-RT control and negative control samples (without template) were processed in the same manner. The specificity of the amplification was verified by melting curve analysis for all samples, and occasionally by agarosa gel electrophoresis. Amplification of target gene sequences were compared against serial dilutions of know quantities of their purified cDNA fragments, and normalized to the abundance of the house-keeping gene β-actin.
# [2] = system: B16 melanoma cells; experiment: Metastasis model, B16 cells injected into tail vein; assay type: in vivo, mouse; details: TMECG 20 mg/Kg/d plus Dipyridamol 10 mg/Kg/d intraperitoneal, 30 days, female mice
# Procedure: B16 melanoma cells were injected into the tail vein, allowing microtumours to develop (1 week), then, the animal were treated for 21 days with […]) plus Dipyridamol (10 mg/Kg/d) by intraperitoneal injection. The animals were sacrifice and lungs and liver analyzed for tumor growth. We have now increased the number of treated and control animals (treated 21 female mice compared with 21 control (untreated) females) and the time of treatment (30 days). […] 31).
# [3] = molecular target: T1, rHDHFR (Homo sapiens, UniProt P00374); experiment: rHDHFR inhibition, progress curves; assay type: biochemical
# T1 construct: purchased Sigma
# T1 sequence (P00374 1-187): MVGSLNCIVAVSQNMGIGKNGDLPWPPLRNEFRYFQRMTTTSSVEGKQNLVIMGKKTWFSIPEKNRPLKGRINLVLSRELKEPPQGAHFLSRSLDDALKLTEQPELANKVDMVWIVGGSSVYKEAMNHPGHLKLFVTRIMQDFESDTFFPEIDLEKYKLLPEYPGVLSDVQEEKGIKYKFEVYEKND
# Procedure: The experiments were carried out in the same buffer as fluorescence experiments in the presence of NADPH (100 μM), DHF (10 μM), and rHDHFR (1.5 nM).
# The activity of rHDHFR was determined at 25° C. by following the decrease in the absorbance of NADPH and DHF at 340 nm (ε=11800 M-1 cm−1) (Stone and Morrison, 1986). Progress curves were obtained under ordered conditions ([NADPH]>>[DHF]). rHDHFR inhibition constants were calculated as described by Navarro-Perán et al., 2005b. The dissociation constant for the binding of inhibitors to free rHDHFR was determined at 25° C. by fluorescence titration in an automatic-scanning Perkin-Elmer LS50B spectrofluorimeter. Fluorescence emission spectra were recorded when rHDHFR fluorescence was excited at 290 nm. Stopped-flow fluorescence experiments were carried out using an Applied Photophysics Ltd. Pi-Star 180 spectrometer with a stopped-flow unit at 25° C.
# [4] = system: MCF7 cells; experiment: MTT cell proliferation assay, MCF7; assay type: cell-based; details: Homo sapiens, 144 h; MCF7, 6 days of treatment
# Procedure: (§1) Four human cancer cells lines (SkMel-28, MCF7, H1264 and Caco-2) were obtained from the American Type Tissue Culture Collection (ATCC) and were maintained in appropriate culture mediums supplemented with 10% fetal calf serum (FCS) and antibiotics, under standard tissue culture conditions (e.g. modified Eagle's medium (MEM) containing 1 mM sodium pyruvate and 10% fetal bovine serum (FES) under 5% CO2/95% air atmosphere.). Cell injury was evaluated by a colorimetric assay for mitochondrial function using the 3-(4,5-dimethylthiazolyl-2)-2,5-diphenyltetrazolium bromide (MTT) cell proliferation assay. For this assay cells were plated in a 96-well plate at a density of 1000 cells/well and grown until they reached 50-60% confluence. Human epidermal melanocytes (HeM) were supplied by Gentaur and were cultured in HAM-F10 medium supplemented with 10% FCS, antibiotics and the human melanocyte growth supplement (Gentaur).
# [5] = system: Caco-2 cells; experiment: MTT cell proliferation assay, Caco-2; assay type: cell-based, human; details: Homo sapiens, 144 h; Caco-2, 6 days of treatment
# Procedure: as §1
# [6] = system: Reduced folate carrier (RFC) mRNA; experiment: Real-time PCR of RFC expression in SkMel-28; assay type: cell-based, human; details: 50 μM, after 24 h of treatment
# Procedure: Data were obtained by real time PCR and compared with the relative expression of RFC in normal human skin (zero relative gene expression). Zero time represents the level of RFC in untreated SkMel-28 cells.
# PolyA+ mRNA from human adult skin was purchased from Invitrogen. SkMel-28 and HEM polyA+ mRNA was extracted from 5×10^6 cells using the Illustra Quick Prep Micro mRNA purification kit (GE Healthcare). mRNA (200 ng) was used to synthesize cDNA using SuperScript First-Strand Synthesis System (Invitrogen). PCR amplification of 2 μL of the cDNA strand generated was carried out in a total volume of 50 μL using an Eppendorf Mastercycler Thermal Cycler. Samples were amplified by 40 cycles at 95° C. (1 min), 62° C. (1 min) and 72° C. (1 min). The amplified PCR products were subjected to electrophoresis in 3% agarose gel and stained with ethidium bromide.
# cDNA samples (1 μL) were used for real-time PCR in a total volume of 20 μL using SYBR Green Reagent (Applied Biosystems) and specific primers on a 7500 Real Time PCR System of Applied Biosystems. […] Amplification of target gene sequences were compared against serial dilutions of know quantities of their purified cDNA fragments, and normalized to the abundance of the house-keeping gene β-actin.
# [7] = SkMel-28, 50 μM, five days, versus untreated SkMel-28
compound,measurement,setting,value
"COc1cc(C(=O)O[C@@H]2Cc3c(O)cc(O)cc3O[C@@H]2c2ccc(O)c(O)c2)cc(OC)c1OC [TMECG, 3-O-(3,4,5-trimethoxybenzoyl)-(−)-epicatechin]",level of MAT1A mRNA,[1]; [7],essentially the some
same,level of MAT2A mRNA,[1]; [7],slightly but significant increase
same,DNMT1 mRNA,"[1]; SkMel-28, treated cells",recovered normal levels
same,lung metastasis,[2],reduction on lung metastasis
same,Decrease % further EI reactions,[3]; decrease of KI to KI* by further EI-complex reactions,19 −fold
same,Ki,[3]; read-out: effective inhibition constant (KI*),110 nM
same,IC50,[4],80 µM
same,IC50,[5],33 µM
same,reduction in RFC expression,[6],more than 80%
